Measured values reported in US6379965B1, “Multifunctional complexes for gene transfer into cells comprising a nucleic acid bound to a polyamine and having an endosome disruption agent” (American Home Products Corporation, priority 1994, dated 2002).

Key:
[1] = test system: Human hepatocellular carcinoma HuH7 cells; assay: Transfection of adherent HuH7 cells in culture with pCMVβ plasmid, β-galactosidase activity; format: cell-based; conditions: HuH7 lysate; 0.5 μg pCMVβ plasmid + 0.5 μg tri-galactosyl-lysyl-lysyl aminopentyl spermidine + 2.5 μg cholesteryl-oxycarbonyl aminopentyl spermidine in 100 μL Optimem; after 30 min
Procedure: Human hepatocellular carcinoma HuH7 cells were grown and seeded into a 96 well plate with 1-2×10^4 cells in 100 μL of minimal essential media α, modification with 10% serum. The plates were incubated in a 37° CO2 incubator until the cells were 60-80% confluent (approximately 24 hrs). The media was removed and the cells washed once with Optimem® (serum free media). Optimem® (100 μL) containing 0.5 μg of pCMVβ plasmid (from Clonetech, No. 6177-1), 0.5 μg of N^4-(5-[N^2,N^6-bis(β-3′-propionyl galactosyl-β1-4-thioglucoside)lysyl-N^6-(β-3′-propionyl galactosyl-β1-4-thioglucoside)lysyl]aminopentyl)-spermidine and 2.5 μg of N^4-(5-cholestene-3′β-oxycarbonyl)-aminopentyl)spermidine was added to the cells. The cells were incubated with the mixture for 4 hrs in a 37° CO2 incubator; thereafter 100 μL of media containing 20% serum was added and the incubation continued for an additional 20 hrs. Cells lysed with 0.5% NP-40 in 140 mM NaCl, 10 mM tris, 1.5 mM MgCl2 were assayed for β-galactosidase activity using o-nitrophenyl β-D-galactopyranoside, and gave A405=1.35 after 30 min. Cells grown in 6 well plates (25 mm diameter) and treated similarly were fixed with 2% paraformaldehyde and assayed for β-galactosidase activity using 5-bromo-4-chloro-3-indolyl β-D-galactopyranoside (J. Sambrook, et al., Molecular Cloning: A Laboratory Manual, Cold Spring Harbor, 1989).

Liver Cells = assay: Transfection of liver cells in vivo with pHBVSA plasmid, serum hepatitus B surface antigen immunoassay; set-up: species or system BALB-C mice; conditions: 10 μg pHBVSA plasmid + 5 μg tri-galactosyl compound + 25 μg cholesteryl compound in 100 μL PBS, tail vein; 48 hrs post-injection; example in present tense
Procedure: […] The plasmid solution (100 μL) is injected into the tail vein of 6-12 week old BALB-C mice. The mice are sacrificed 48-120 hrs later and the serum tested for hepatitus B surface antigen using a commercial enzyme-linked immunoassay.

Muscle Cells = assay: Transfection of muscle cells in vivo with pCMVβ plasmid, β-galactosidase staining of quadriceps; set-up: species or system BALB-C mice; conditions: 100 μg pCMVβ plasmid + 100 μg compound in 100 μL PBS, injected into rear quadriceps, approx. 96 hrs; control plasmid in 0.25% bupivicaine hydrochloride
Procedure: Solutions were prepared containing 100 μg of pCMVβ plasmid and 100 μg of either N^4-octylspermidine, N^4-dodecylspermidine or N^4-(5-cholestene-3′β-oxycarbonyl)aminopentyl)spermidine, each in 100 μL of phosphate buffered saline. The plasmid solution (100 μL) was injected into the rear quadriceps of 6-12 week old BALB-C mice. The mice were sacrificed approximately 96 hrs later and the entire quadriceps muscle tissue was removed. The muscle was fixed with formalin for 2 hrs, and assayed for β-galactosidase activity using 5-bromo-4-chloro-3-indolyl-β-D-galactopyranoside (1 mg/mL in tris/EDTA pH 8.5). All three injections were scored as positive since the blue color was more intense than the control: injection of 100 μg of pCMVβ plasmid injected in 100 μL of 0.25% bupivicaine hydrochloride in citrate buffer pH 6.0.

“4-[(N^2-[N^2,N^6-bis(3-[4-O(β-D-galactopyranosyl)-β-D-glucopyranosylthio]propionyl)lysyl]N^6-(3-[4-O-(β-D-galactopyranosyl)-β-D-glucopyranosylthio]-propionyl)lysinamido)pentyl]-1,8-diamino-4-azaoctane, acetate salt” was tested, and the “β-galactosidase activity using o-nitrophenyl β-D-galactopyranoside, A405” value [1] was 1.35 and the “production of hepatitus B surface antigen in serum” value (Liver Cells) was “greater than the positive control”.

In the case of `CC(C)CCC[C@@H](C)[C@H]1CC[C@H]2[C@@H]3CC=C4C[C@@H](OC(=O)NCCCCCN(CCCN)CCCCN)CC[C@]4(C)[C@H]3CC[C@]12C.Cl` [N^4-(5-cholestene-3′β-oxycarbonyl)aminopentyl spermidine hydrochloride Salt], the “β-galactosidase activity using o-nitrophenyl β-D-galactopyranoside, A405” value [1] is reported as 1.35, the “β-galactosidase staining of quadriceps muscle, score versus control” value (Muscle Cells) is reported as “positive” and the “production of hepatitus B surface antigen in serum” value (Liver Cells) is reported as “greater than the positive control”.

In the case of `CCCCCCCCCCCCN(CCCN)CCCCN.Cl.Cl.Cl` [N^4-dodecylspermidine, N^4-dodecylspermidine trihydrochloride], the “β-galactosidase staining of quadriceps muscle, score versus control” value (Muscle Cells) is reported as “positive”.

In the case of N^4-octylspermidine, the “β-galactosidase staining of quadriceps muscle, score versus control” value (Muscle Cells) is reported as “positive”.
